Laboratory results published in US9834521B2, “Choline kinase inhibitors” (ARIAD Pharmaceuticals, Inc., priority 2013, dated 2017).
Read-outs that look alike come from different tables or passages of the source.

Molecular target: T1, truncated form of human Choline kinase α1 that includes residues 75-457 (Homo sapiens, UniProt P35790)
T1 construct: made in house
Experiment: Kinase Assay, coupled (ATP regeneration) LDH/PK assay, NADH absorbance
Type: biochemical
Method: Absorbance of NADH (340 nm) was measured over 30 min using a SpectraMax M5 (Molecular Devices). Initial reaction velocity (ΔA340/Δt) was calculated and plotted as a function of inhibitor concentration in a 2-fold dilution series. IC50 values were obtained by fitting the relative velocities to a dose-response model.

[1] = Examples not designated with an asterisk, footnote prints version 1 of the Kinase Assay, read-out: IC50

T1 sequence (P35790 75-457): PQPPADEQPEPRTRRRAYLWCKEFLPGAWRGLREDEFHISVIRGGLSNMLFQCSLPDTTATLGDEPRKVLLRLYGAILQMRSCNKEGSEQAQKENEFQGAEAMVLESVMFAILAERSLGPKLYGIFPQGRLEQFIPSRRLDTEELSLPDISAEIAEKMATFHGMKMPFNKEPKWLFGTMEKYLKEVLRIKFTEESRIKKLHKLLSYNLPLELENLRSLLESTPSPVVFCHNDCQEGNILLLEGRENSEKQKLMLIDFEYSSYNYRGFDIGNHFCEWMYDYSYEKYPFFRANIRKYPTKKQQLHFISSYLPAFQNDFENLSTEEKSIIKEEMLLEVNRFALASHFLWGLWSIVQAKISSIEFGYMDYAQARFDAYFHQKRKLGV

| Structure (SMILES) | IC50 [1] [nM] | IC50 [nM] |
| --- | --- | --- |
| COCCN1CCN(Cc2ccc(-c3ccc(CN4CCCN(C)CC4)cc3C#N)cc2)CC1 [Example 3, 4′-((4-(2-methoxyethyl)piperazin-1-yl)methyl)-4-((4-methyl-1,4-diazepan-1-yl)methyl)-[1,1′-biphenyl]-2-carbonitrile] | < 500 | – |
| CN1CCCN(Cc2ccc(-c3ccc(CNCCNC(=O)OC(C)(C)C)cc3)c(C#N)c2)CC1 [Example 10, tert-butyl(2-(((2′-cyano-4′-((4-methyl-1,4-diazepan-1-yl)methyl)-[1,1′-biphenyl]-4-yl)methyl)amino)ethyl)carbamate] | < 500 | – |
| CN(C)Cc1ccc(-c2ccc(CN3CCCN(C)CC3)cc2C#N)cc1 [Example 12, 4′-((dimethylamino)methyl)-4-((4-methyl-1,4-diazepan-1-yl)methyl)-[1,1′-biphenyl]-2-carbonitrile] | < 500 | – |
| CN1CCCN(Cc2ccc(-c3ccc(CN4CCCCC4)cc3)c(C#N)c2)CC1 [Example 13, 4-((4-methyl-1,4-diazepan-1-yl)methyl)-4′-(piperidin-1-ylmethyl)-[1,1′-biphenyl]-2-carbonitrile] | < 2000 | – |
| CN1CCCN(Cc2ccc(-c3ccc(C(=O)N(C)CCO)cc3)c(C#N)c2)CC1 [Example 17, 2′-cyano-N-(2-hydroxyethyl)-N-methyl-4′-((4-methyl-1,4-diazepan-1-yl)methyl)-[1,1′-biphenyl]-4-carboxamide] | < 500 | – |
| CN1CCCN(Cc2ccc(-c3ccc(C(=O)N4CCN(CCO)CC4)cc3)c(C#N)c2)CC1 [Example 18, 4′-(4-(2-hydroxyethyl)piperazine-1-carbonyl)-4-((4-methyl-1,4-diazepan-1-yl)methyl)-[1,1′-biphenyl]-2-carbonitrile] | < 500 | – |
| CN1CCCN(Cc2ccc(-c3ccc(C(=O)N4CCC(O)CC4)cc3)c(C#N)c2)CC1 [Example 19, 4′-(4-hydroxypiperidine-1-carbonyl)-4-((4-methyl-1,4-diazepan-1-yl)methyl)-[1,1′-biphenyl]-2-carbonitrile] | < 500 | – |
| CN1CCCN(Cc2ccc(-c3ccc(C(=O)N(C)C)cc3)c(C#N)c2)CC1 [Example 20, 2′-cyano-N,N-dimethyl-4′-((4-methyl-1,4-diazepan-1-yl)methyl)-[1,1′-biphenyl]-4-carboxamide] | < 50000 | – |
| COCCN1CCN(C(=O)c2ccc(-c3ccc(CN4CCCN(C)CC4)cc3C#N)cc2)CC1 [Example 21, 4′-(4-(2-methoxyethyl)piperazine-1-carbonyl)-4-((4-methyl-1,4-diazepan-1-yl)methyl)-[1,1′-biphenyl]-2-carbonitrile] | < 500 | – |
| CN1CCCN(Cc2ccc(-c3ccc(C(=O)N4CCCC(O)C4)cc3)c(C#N)c2)CC1 (centres unmarked) [Example 23, 4′-(3-hydroxypiperidine-1-carbonyl)-4-((4-methyl-1,4-diazepan-1-yl)methyl)-[1,1′-biphenyl]-2-carbonitrile] | < 500 | – |
| CN1CCCN(Cc2ccc(-c3ccc(C(=O)N4CCN(C)CC4)cc3)c(C#N)c2)CC1 [Example 24, 4-((4-methyl-1,4-diazepan-1-yl)methyl)-4′-(4-methylpiperazine-1-carbonyl)-[1,1′-biphenyl]-2-carbonitrile] | < 500 | – |
| CN1CCCN(Cc2ccc(-c3ccc(C(=O)N4CCC(O)C4)cc3)c(C#N)c2)CC1 (centres unmarked) [Example 25, 4′-(3-hydroxypyrrolidine-1-carbonyl)-4-((4-methyl-1,4-diazepan-1-yl)methyl)-[1,1′-biphenyl]-2-carbonitrile] | < 500 | – |
| CN1CCCN(Cc2ccc(-c3ccc(C(=O)N4CCCC4)cc3)c(C#N)c2)CC1 [Example 26, 4-((4-methyl-1,4-diazepan-1-yl)methyl)-4′-(pyrrolidine-1-carbonyl)-[1,1′-biphenyl]-2-carbonitrile] | – | < 2000 |
| CN1CCCN(Cc2ccc(-c3ccc(C(N)=O)cc3)c(C#N)c2)CC1 [Example 28, 2′-cyano-4′-((4-methyl-1,4-diazepan-1-yl)methyl)-[1,1′-biphenyl]-4-carboxamide] | < 500 | – |
| CN1CCCN(Cc2ccc(-c3ccc(C(=O)N4CCC(=O)CC4)cc3)c(C#N)c2)CC1 [Example 31, 4-((4-methyl-1,4-diazepan-1-yl)methyl)-4′-(4-oxopiperidine-1-carbonyl)-[1,1′-biphenyl]-2-carbonitrile] | – | < 2000 |
| CN1CCCN(Cc2ccc(-c3ccc(C(=O)N4CCCCC4)cc3)c(C#N)c2)CC1 [Example 34, 4-((4-methyl-1,4-diazepan-1-yl)methyl)-4′-(piperidine-1-carbonyl)-[1,1′-biphenyl]-2-carbonitrile] | – | < 500 |
| CON(C)C(=O)c1ccc(-c2ccc(CN3CCCN(C)CC3)cc2C#N)cc1 [Example 35, 2′-cyano-N-methoxy-N-methyl-4′-((4-methyl-1,4-diazepan-1-yl)methyl)-[1,1′-biphenyl]-4-carboxamide] | < 500 | – |
| CN1CCCN(Cc2ccc(-c3ccc(C(=O)N4CCOCC4)cc3)c(C#N)c2)CC1 [Example 36, 4-((4-methyl-1,4-diazepan-1-yl)methyl)-4′-(morpholine-4-carbonyl)-[1,1′-biphenyl]-2-carbonitrile] | – | < 2000 |

| Structure (SMILES) | IC50 [1] [nM] | IC50 [nM] |
| --- | --- | --- |
| CC(=O)N1CCN(C(=O)c2ccc(-c3ccc(CN4CCCN(C)CC4)cc3)cc2)CC1 [Example 38, 1-(4-(4′-((4-methyl-1,4-diazepan-1-yl)methyl)-[1,1′-biphenyl]-4-carbonyl)piperazin-1-yl)ethanone] | < 50000 | – |
| CN1CCCN(Cc2ccc(-c3ccc(C(=O)N4CCC(N5CCOCC5)CC4)cc3)cc2)CC1 [Example 39, (4′-((4-methyl-1,4-diazepan-1-yl)methyl)-[1,1′-biphenyl]-4-yl)(4-morpholinopiperidin-1-yl)methanone] | < 50000 | – |
| CN1CCCN(Cc2ccc(-c3ccc(CNP(C)(C)=O)cc3)c(C#N)c2)CC1 [Example 46, N-((2′-cyano-4′-((4-methyl-1,4-diazepan-1-yl)methyl)-[1,1′-biphenyl]-4-yl)methyl)-P,P-dimethylphosphinic amide] | – | < 500 |
| CNC(=O)NCc1ccc(-c2ccc(CN3CCCN(C)CC3)cc2C#N)cc1 [Example 47, 1-((2′-cyano-4′-((4-methyl-1,4-diazepan-1-yl)methyl)-[1,1′-biphenyl]-4-yl)methyl)-3-methylurea] | < 500 | – |
| Cc1cc(CN2CCCN(C)CC2)ccc1-c1ccc(CN2CCCN(C)CC2)cc1 [Example 49, 4,4′-((2-methyl-[1,1′-biphenyl]-4,4′-diyl)bis(methylene))bis(1-methyl-1,4-diazepane)] | < 500 | – |
| CN1CCCN(Cc2ccc(-c3ccc(CN4CCCN(C)CC4)cc3CN)cc2)CC1 [Example 52, (4,4′-bis((4-methyl-1,4-diazepan-1-yl)methyl)-[1,1′-biphenyl]-2-yl)methanamine] | < 500 | – |
| CN1CCCN(Cc2ccc(-c3ccc(CN4CCCN(C)CC4)cc3CNC=O)cc2)CC1 [Example 53, N-((4,4′-bis((4-methyl-1,4-diazepan-1-yl)methyl)-[1,1′-biphenyl]-2-yl)methyl)formamide] | < 500 | – |
| Cc1cc(-c2ccc(CN3CCCN(C)CC3)cc2)ccc1CN1CCCN(C)CC1 [Example 54, 4,4′-((3-methyl-[1,1′-biphenyl]-4,4′-diyl)bis(methylene))bis(1-methyl-1,4-diazepane)] | < 500 | – |
| CN1CCCN(Cc2ccc(-c3ccc(C(=O)N4CCCN(C)CC4)cc3)c(F)c2)CC1 [Example 58, (2′-fluoro-4′-((4-methyl-1,4-diazepan-1-yl)methyl)-[1,1′-biphenyl]-4-yl)(4-methyl-1,4-diazepan-1-yl)methanone] | < 500 | – |
| CN1CCCN(Cc2ccc(-c3ccc(C(=O)N4CCCN(C)CC4)cc3F)cc2)CC1 [Example 59, (2-fluoro-4′-((4-methyl-1,4-diazepan-1-yl)methyl)-[1,1′-biphenyl]-4-yl)(4-methyl-1,4-diazepan-1-yl)methanone] | < 2000 | – |
| Cc1cc(C(=O)N2CCCN(C)CC2)ccc1-c1ccc(CN2CCCN(C)CC2)cc1C#N [Example 60, 2′-methyl-4-((4-methyl-1,4-diazepan-1-yl)methyl)-4′-(4-methyl-1,4-diazepane-1-carbonyl)-[1,1′-biphenyl]-2-carbonitrile] | < 2000 | – |
| CN1CCCN(Cc2ccc(-c3ccc(C(=O)N4CCCN(C)CC4)cc3Br)c(C#N)c2)CC1 [Example 61, 2′-bromo-4-((4-methyl-1,4-diazepan-1-yl)methyl)-4′-(4-methyl-1,4-diazepane-1-carbonyl)[1,1′-biphenyl]-2-carbonitrile] | < 500 | – |
| CN1CCCN(Cc2ccc(-c3ccc(C(=O)N4CCCN(C)CC4)cc3N(C)C)c(C#N)c2)CC1 [Example 62, 2′-(dimethylamino)-4-((4-methyl-1,4-diazepan-1-yl)methyl)-4′-(4-methyl-1,4-diazepane-1-carbonyl)-[1,1′-biphenyl]-2-carbonitrile] | < 500 | – |
| CN1CCCN(Cc2ccc(-c3ccc(C(=O)N4CCCN(C)CC4)cc3-c3ccccc3)c(C#N)c2)CC1 [Example 65, 4-((4-methyl-1,4-diazepan-1-yl)methyl)-4′-(4-methyl-1,4-diazepane-1-carbonyl)-[1,1′:2′,1″-terphenyl]-2-carbonitrile] | < 500 | – |
| CN1CCCN(Cc2ccc(-c3ccc(C(=O)N4CCCN(C)CC4)cc3-c3ccc(CC#N)cc3)c(C#N)c2)CC1 [Example 67, 4″-(cyanomethyl)-4-((4-methyl-1,4-diazepan-1-yl)methyl)-4′-(4-methyl-1,4-diazepane-1-carbonyl)-[1,1′:2′,1″-terphenyl]-2-carbonitrile] | < 500 | – |
| CN1CCCN(Cc2ccc(-c3ccc(C(=O)N4CCCN(C)CC4)cc3-c3ccc(C#N)cc3)c(C#N)c2)CC1 [Example 68, 4-((4-methyl-1,4-diazepan-1-yl)methyl)-4′-(4-methyl-1,4-diazepane-1-carbonyl)-[1:1′:2′,1″-terphenyl]-2,4″-dicarbonitrile] | < 500 | – |
| Cc1ccc(-c2cc(C(=O)N3CCCN(C)CC3)ccc2-c2ccc(CN3CCCN(C)CC3)cc2C#N)cc1 [Example 70, 4″-methyl-4-((4-methyl-1,4-diazepan-1-yl)methyl)-4′-(4-methyl-1,4-diazepane-1-carbonyl)-[1,1′1:2′,1″-terphenyl]-2-carbonitrile] | < 500 | – |
